Assays:
[1] = molecular target: CYP2C19 (Homo sapiens, UniProt P33261); experiment: CYP2C19 inhibition (fluorescent substrate); format: in vitro ADME; settings: CYP2C19, CEC substrate; read-out: Cyp IC50 2C19
Summary of the method: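 10-pt 1:1 serial dilution in co-factor mix (DMSO stock 100 mM); 10 min preincubation, 37 °C; reaction at 37 °C. Readout: fluorescent metabolite of probe substrate. IC50 from signal vs [compound].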

[2] = system: Colo205 xenograft; experiment: Colo205 xenograft mouse model, tumor growth inhibition; format: in vivo; settings: COLO 205, 336 h, female nu/nu mice, 10 mg/kg daily for fourteen days
Procedure: Tumor growth is monitored to approximately 100 mg size, and mice are distributed to treatment groups such that the mean tumor burden within a group is within 10% of the overall mean tumor burden. […] Mice are observed daily, with tumor burden and body weights measured twice a week. Animals with tumor burden above 1500-2000 mg and any animals in moribund condition are euthanized. The average tumor growth of vehicle control group mice is compared to the average tumor growth of the test compound mice. Percent tumor growth inhibition is calculated as 100×[(tumor growth control-tumor growth test compound)/tumor growth control].

[3] = molecular target: T1, A-Raf (Homo sapiens, UniProt P10398); experiment: A-Raf biochemical kinase inhibition (AlphaScreen, biotin-MEK1 substrate); settings: 100 μM ATP
T1 sequence (P10398 1-606): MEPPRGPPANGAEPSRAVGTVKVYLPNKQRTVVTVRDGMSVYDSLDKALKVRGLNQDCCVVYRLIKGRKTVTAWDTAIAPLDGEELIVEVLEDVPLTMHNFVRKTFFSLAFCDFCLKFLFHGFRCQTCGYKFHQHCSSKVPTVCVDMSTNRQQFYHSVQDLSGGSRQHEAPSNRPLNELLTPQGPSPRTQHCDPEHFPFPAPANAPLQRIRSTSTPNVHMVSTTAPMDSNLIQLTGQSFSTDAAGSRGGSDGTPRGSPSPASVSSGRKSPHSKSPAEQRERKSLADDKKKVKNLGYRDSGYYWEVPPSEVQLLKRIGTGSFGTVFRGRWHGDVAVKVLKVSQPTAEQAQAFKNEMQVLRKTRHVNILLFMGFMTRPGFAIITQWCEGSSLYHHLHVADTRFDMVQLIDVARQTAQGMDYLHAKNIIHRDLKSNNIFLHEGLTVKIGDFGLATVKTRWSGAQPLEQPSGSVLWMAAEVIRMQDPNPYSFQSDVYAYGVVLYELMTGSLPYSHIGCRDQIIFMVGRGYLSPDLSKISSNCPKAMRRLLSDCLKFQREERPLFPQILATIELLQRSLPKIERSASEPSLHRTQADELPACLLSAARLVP
Procedure: Compounds to be tested are diluted in dimethyl sulfoxide to a concentration of 0.1 mM. These are serially diluted 15 μL into 30 μL of dimethyl sulfoxide seven times in 96 well plates for a total of 8 dilution points, and for each dilution point 1 μL is added to a well of an assay plate. […] The reaction is started with addition of 10 μL of 200 μM ATP (i.e. final 100 μM ATP). […] The plates are incubated for 3 hours at room temperature and read on Envision reader (Perkin Elmer). […] The signal vs. compound concentration is used to determine the IC50.

Chain of CYP2C19 (P33261 whole entry): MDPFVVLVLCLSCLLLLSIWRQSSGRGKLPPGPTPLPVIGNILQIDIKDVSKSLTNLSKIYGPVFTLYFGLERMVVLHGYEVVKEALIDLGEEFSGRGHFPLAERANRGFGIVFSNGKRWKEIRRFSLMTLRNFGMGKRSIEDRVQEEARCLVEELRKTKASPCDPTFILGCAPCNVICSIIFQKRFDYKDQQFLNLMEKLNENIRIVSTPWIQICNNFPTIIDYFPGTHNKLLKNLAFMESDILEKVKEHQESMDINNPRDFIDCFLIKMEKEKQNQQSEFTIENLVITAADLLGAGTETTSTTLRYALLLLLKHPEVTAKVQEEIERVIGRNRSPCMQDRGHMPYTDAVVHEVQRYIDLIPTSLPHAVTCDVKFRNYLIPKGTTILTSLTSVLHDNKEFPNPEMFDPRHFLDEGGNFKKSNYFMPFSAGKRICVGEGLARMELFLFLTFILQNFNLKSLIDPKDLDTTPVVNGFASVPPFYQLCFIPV

**Q.** Which results are given for CCCS(=O)(=O)Nc1ccc(F)c(C(=O)c2c[nH]c3ncc(-c4cncnc4)cc23)c1F [P-2162, Propane-1-sulfonic acid [2,4-difluoro-3-(5-pyrimidin-5-yl-1H-pyrrolo[2,3-b]pyridine-3-carbonyl)-phenyl]-amide]?
**A.** IC50 [1]: > 10 µM; inhibition in vivo at 10 mg/kg [2]: 17%

**Q.** How did the IC50 [1] turn out when COc1ccnc2[nH]cc(C(=O)c3c(F)ccc(NS(=O)(=O)c4ccccc4F)c3F)c12 [P-2021, N-[2,4-Difluoro-3-(4-methoxy-1H-pyrrolo[2,3-b]pyridine-3-carbonyl)-phenyl]-2-fluoro-benzenesulfonamide] was run?
**A.** > 10 µM

**Q.** What about the inhibition in vivo at 10 mg/kg [2] of the same compound?
**A.** 35%

**Q.** For CCCS(=O)(=O)Nc1cccc(C(=O)c2c[nH]c3ncc(-c4cnc(OC)nc4)cc23)c1F [P-2407, Propane-1-sulfonic acid {2-fluoro-3-[5-(2-methoxy-pyrimidin-5-yl)-1H-pyrrolo[2,3-b]pyridine-3-carbonyl]-phenyl}-amide], which IC50 [1] is on record?
**A.** < 5 µM

**Q.** What about the IC50 [3] of the same compound?
**A.** < 0.01 µM

**Q.** CCCS(=O)(=O)Nc1cccc(C(=O)c2c[nH]c3ncc(-c4cnc(N(C)C)nc4)cc23)c1F [P-2408, Propane-1-sulfonic acid {3-[5-(2-dimethylamino-pyrimidin-5-yl)-1H-pyrrolo[2,3-b]pyridine-3-carbonyl]-2-fluoro-phenyl}-amide] was tested. Which IC50 [1] did it give?
**A.** > 10 µM

**Q.** And the IC50 [3]?
**A.** < 0.01 µM

**Q.** Which results are given for N#Cc1cnc2[nH]cc(C(=O)c3c(F)ccc(NS(=O)(=O)c4ccccc4)c3F)c2c1 [P-2046, N-[3-(5-Cyano-1H-pyrrolo[2,3-b]pyridine-3-carbonyl)-2,4-difluoro-phenyl]-benzenesulfonamide]?
**A.** IC50 [1]: < 5 µM; IC50 [3]: < 0.01 µM; inhibition in vivo at 10 mg/kg [2]: 70%

**Q.** What does the source list for CCCS(=O)(=O)Nc1ccc(F)c(C(=O)c2c[nH]c3ncc(-c4cnc(N(C)C)nc4)cc23)c1F [P-2196, Propane-1-sulfonic acid {3-[5-(2-dimethylamino-pyrimidin-5-yl)-1H-pyrrolo[2,3-b]pyridine-3-carbonyl]-2,4-difluoro-phenyl}-amide]?
**A.** IC50 [1]: > 10 µM; IC50 [3]: < 0.01 µM; inhibition in vivo at 10 mg/kg [2]: 71%

**Q.** With CCCS(=O)(=O)Nc1ccc(F)c(C(=O)c2c[nH]c3ncc(-c4ccc(OCCCN(C)C)nc4)cc23)c1F [P-2178, Propane-1-sulfonic acid (3-{5-[6-(3-dimethylamino-propoxy)-pyridin-3-yl]-1H-pyrrolo[2,3-b]pyridine-3-carbonyl}-2,4-difluoro-phenyl)-amide] as the compound, how does the IC50 [1] read?
**A.** 5 to 10 µM

**Q.** What about the inhibition in vivo at 10 mg/kg [2] of the same compound?
**A.** 0%

**Q.** For N#Cc1ccnc2[nH]cc(C(=O)c3c(F)ccc(NS(=O)(=O)c4cccc(F)c4)c3F)c12 [P-2039, N-[3-(4-Cyano-1H-pyrrolo[2,3-b]pyridine-3-carbonyl)-2,4-difluoro-phenyl]-3-fluoro-benzenesulfonamide], which IC50 [1] is on record?
**A.** > 10 µM

**Q.** What about the IC50 [3] of the same compound?
**A.** < 0.01 µM

**Q.** How did the IC50 [1] turn out when CCCS(=O)(=O)Nc1ccc(F)c(C(=O)c2c[nH]c3ncc(-c4cnc(C)nc4)cc23)c1F [P-2211, Propane-1-sulfonic acid {2,4-difluoro-3-[5-(2-methyl-pyrimidin-5-yl)-1H-pyrrolo[2,3-b]pyridine-3-carbonyl]-phenyl}-amide] was run?
**A.** 5 to 10 µM

**Q.** What about the inhibition in vivo at 10 mg/kg [2] of the same compound?
**A.** 0%

**Q.** Which results are given for CCCS(=O)(=O)Nc1ccc(F)c(C(=O)c2c[nH]c3ncc(-c4ccc(OCCN5CCCC5)nc4)cc23)c1F [P-2233, Propane-1-sulfonic acid (2,4-difluoro-3-{5-[6-(2-pyrrolidin-1-yl-ethoxy)-pyridin-3-yl]-1H-pyrrolo[2,3-b]pyridine-3-carbonyl}-phenyl)-amide]?
**A.** IC50 [1]: 5 to 10 µM; IC50 [3]: < 0.01 µM

**Q.** Which results are given for N#Cc1cnc2[nH]cc(C(=O)c3c(F)ccc(NS(=O)(=O)c4ccccc4F)c3F)c2c1 [P-2011, N-[3-(5-Cyano-1H-pyrrolo[2,3-b]pyridine-3-carbonyl)-2,4-difluoro-phenyl]-2-fluoro-benzenesulfonamide]?
**A.** IC50 [1]: > 10 µM; IC50 [3]: < 0.01 µM; inhibition in vivo at 10 mg/kg [2]: 72%

**Q.** How did the IC50 [1] turn out when CCCS(=O)(=O)Nc1ccc(F)c(C(=O)c2c[nH]c3ncc(-c4ccc(OCCCN5CCOCC5)nc4)cc23)c1F [P-2236, Propane-1-sulfonic acid (2,4-difluoro-3-{5-[6-(3-morpholin-4-yl-propoxy)-pyridin-3-yl]-1H-pyrrolo[2,3-b]pyridine-3-carbonyl}-phenyl)-amide] was run?
**A.** < 5 µM

**Q.** What about the IC50 [3] of the same compound?
**A.** < 0.01 µM

**Q.** For N#Cc1ccnc2[nH]cc(C(=O)c3c(F)ccc(NS(=O)(=O)c4cccnc4)c3F)c12 [P-2077, Pyridine-3-sulfonic acid [3-(4-cyano-1H-pyrrolo[2,3-b]pyridine-3-carbonyl)-2,4-difluoro-phenyl]-amide], which IC50 [1] is on record?
**A.** > 10 µM

**Q.** What about the IC50 [3] of the same compound?
**A.** < 0.01 µM

**Q.** How did the IC50 [1] turn out when O=C(c1c(F)ccc(NS(=O)(=O)c2cccc(F)c2)c1F)c1c[nH]c2nccc(Cl)c12 [P-2019, N-[3-(4-Chloro-1H-pyrrolo[2,3-b]pyridine-3-carbonyl)-2,4-difluoro-phenyl]-3-fluoro-benzenesulfonamide] was run?
**A.** > 10 µM

**Q.** And the IC50 [3]?
**A.** < 0.01 µM

**Q.** What does the source list for N#Cc1cnc2[nH]cc(C(=O)c3cccc(NS(=O)(=O)c4ccccc4)c3F)c2c1 [P-2056, N-[3-(5-Cyano-1H-pyrrolo[2,3-b]pyridine-3-carbonyl)-2-fluoro-phenyl]-benzenesulfonamide]?
**A.** IC50 [1]: > 10 µM; IC50 [3]: < 0.01 µM; inhibition in vivo at 10 mg/kg [2]: 66%

**Q.** Which IC50 [1] does the source give for Cc1cnc2[nH]cc(C(=O)c3c(F)ccc(NS(=O)(=O)c4cccnc4)c3F)c2c1 [P-2069, Pyridine-3-sulfonic acid [2,4-difluoro-3-(5-methyl-1H-pyrrolo[2,3-b]pyridine-3-carbonyl)-phenyl]-amide] here?
**A.** > 10 µM

**Q.** And the IC50 [3]?
**A.** < 0.1 µM

**Q.** And the inhibition in vivo at 10 mg/kg [2]?
**A.** 29%

**Q.** For Cc1cnc2[nH]cc(C(=O)c3c(F)ccc(NS(=O)(=O)c4cc(F)ccc4F)c3F)c2c1 [P-2015, N-[2,4-Difluoro-3-(5-methyl-1H-pyrrolo[2,3-b]pyridine-3-carbonyl)-phenyl]-2,5-difluoro-benzenesulfonamide], which IC50 [1] is on record?
**A.** 5 to 10 µM

**Q.** And the IC50 [3]?
**A.** < 0.01 µM

**Q.** What about the inhibition in vivo at 10 mg/kg [2] of the same compound?
**A.** 67%

**Q.** With CCCS(=O)(=O)Nc1ccc(F)c(C(=O)c2c[nH]c3ncc(C#CCOC)cc23)c1F [P-2239, Propane-1-sulfonic acid {2,4-difluoro-3-[5-(3-methoxy-prop-1-ynyl)-1H-pyrrolo[2,3-b]pyridine-3-carbonyl]-phenyl}-amide] as the compound, how does the IC50 [1] read?
**A.** 5 to 10 µM

**Q.** What about the IC50 [3] of the same compound?
**A.** < 0.01 µM

**Q.** And the inhibition in vivo at 10 mg/kg [2]?
**A.** 4%

**Q.** For CCCS(=O)(=O)Nc1ccc(F)c(C(=O)c2c[nH]c3ncc(-c4ccc(OCCN5CCOCC5)nc4)cc23)c1F [P-2232, Propane-1-sulfonic acid (2,4-difluoro-3-{5-[6-(2-morpholin-4-yl-ethoxy)-pyridin-3-yl]-1H-pyrrolo[2,3-b]pyridine-3-carbonyl}-phenyl)-amide], which IC50 [1] is on record?
**A.** > 10 µM

**Q.** And the IC50 [3]?
**A.** < 0.01 µM

**Q.** What about the inhibition in vivo at 10 mg/kg [2] of the same compound?
**A.** 54%

**Q.** For CCCS(=O)(=O)Nc1ccc(F)c(C(=O)c2c[nH]c3ncc(-c4ccc(NS(C)(=O)=O)cc4)cc23)c1F [P-2165, Propane-1-sulfonic acid {2,4-difluoro-3-[5-(4-methanesulfonylamino-phenyl)-1H-pyrrolo[2,3-b]pyridine-3-carbonyl]-phenyl}-amide], which IC50 [1] is on record?
**A.** 5 to 10 µM

**Q.** And the IC50 [3]?
**A.** < 0.01 µM

**Q.** Which IC50 [1] does the source give for CCCS(=O)(=O)Nc1ccc(F)c(C(=O)c2c[nH]c3ncc(-c4ccc(OCCCN5CCCC5)nc4)cc23)c1F [P-2235, Propane-1-sulfonic acid (2,4-difluoro-3-{5-[6-(3-pyrrolidin-1-yl-propoxy)-pyridin-3-yl]-1H-pyrrolo[2,3-b]pyridine-3-carbonyl}-phenyl)-amide] here?
**A.** < 5 µM

**Q.** What about the IC50 [3] of the same compound?
**A.** < 0.01 µM

**Q.** What does the source list for Cc1cnc2[nH]cc(C(=O)c3c(F)ccc(NS(=O)(=O)c4ccccc4F)c3F)c2c1 [P-2014, N-[2,4-Difluoro-3-(5-methyl-1H-pyrrolo[2,3-b]pyridine-3-carbonyl)-phenyl]-2-fluoro-benzenesulfonamide]?
**A.** IC50 [1]: > 10 µM; IC50 [3]: < 0.01 µM

**Q.** Which IC50 [1] does the source give for N#Cc1ccnc2[nH]cc(C(=O)c3c(F)ccc(NS(=O)(=O)c4cc(F)ccc4F)c3F)c12 [P-2036, N-[3-(4-Cyano-1H-pyrrolo[2,3-b]pyridine-3-carbonyl)-2,4-difluoro-phenyl]-2,5-difluoro-benzenesulfonamide] here?
**A.** > 10 µM

**Q.** What about the IC50 [3] of the same compound?
**A.** < 0.01 µM

— patent US8198273B2, “Compounds and methods for kinase modulation, and indications therefor” (Plexxikon Inc., priority 2009, dated 2012)
